Legend:
[1] = biological target: T1, Dual specificity protein phosphatase 3 (Homo sapiens, UniProt P51452); test: In vitro inhibitory activity against human recombinant VHR phosphatase enzyme
[2] = biological target: T2, Tyrosine-protein phosphatase non-receptor type 1 (Homo sapiens, UniProt P18031); test: In vitro inhibitory activity against human recombinant PTP1B phosphatase enzyme
T2 sequence (P18031 whole entry): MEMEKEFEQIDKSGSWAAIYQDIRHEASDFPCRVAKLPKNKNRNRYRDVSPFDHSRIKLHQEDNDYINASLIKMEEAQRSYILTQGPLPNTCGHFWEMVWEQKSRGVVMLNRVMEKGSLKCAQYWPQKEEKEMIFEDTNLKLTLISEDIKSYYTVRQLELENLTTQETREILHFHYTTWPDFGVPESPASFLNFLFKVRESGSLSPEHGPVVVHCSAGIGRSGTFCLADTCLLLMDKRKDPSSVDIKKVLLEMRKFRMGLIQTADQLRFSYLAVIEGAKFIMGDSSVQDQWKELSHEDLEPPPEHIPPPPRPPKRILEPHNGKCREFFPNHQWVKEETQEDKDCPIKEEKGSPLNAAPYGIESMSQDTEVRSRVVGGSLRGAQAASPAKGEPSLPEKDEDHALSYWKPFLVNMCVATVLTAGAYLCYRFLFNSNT

[3] = biological target: T3, M-phase inducer phosphatase 2 (Homo sapiens, UniProt P30305); test: Inhibitory activity against human recombinant Cdc25B phosphatase enzyme
T3 sequence (P30305 whole entry): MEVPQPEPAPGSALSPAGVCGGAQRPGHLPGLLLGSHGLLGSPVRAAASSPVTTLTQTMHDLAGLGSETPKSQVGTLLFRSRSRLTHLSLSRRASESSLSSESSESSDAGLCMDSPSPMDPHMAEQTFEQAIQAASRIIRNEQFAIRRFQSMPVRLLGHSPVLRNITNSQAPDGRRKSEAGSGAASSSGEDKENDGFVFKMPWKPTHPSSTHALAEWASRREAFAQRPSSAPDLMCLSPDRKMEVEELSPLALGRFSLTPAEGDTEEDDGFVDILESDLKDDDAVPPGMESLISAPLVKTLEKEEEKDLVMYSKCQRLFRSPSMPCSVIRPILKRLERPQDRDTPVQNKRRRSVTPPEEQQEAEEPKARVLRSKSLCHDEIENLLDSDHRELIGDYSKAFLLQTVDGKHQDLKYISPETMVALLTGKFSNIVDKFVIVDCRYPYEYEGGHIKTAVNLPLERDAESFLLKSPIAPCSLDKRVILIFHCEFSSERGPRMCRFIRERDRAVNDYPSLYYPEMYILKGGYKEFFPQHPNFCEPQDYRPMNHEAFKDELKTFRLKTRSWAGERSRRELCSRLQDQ

[4] = biological target: T3, M-phase inducer phosphatase 2; test: In vitro inhibitory activity against human recombinant Cdc25B phosphatase enzyme
[5] = biological target: T1, Dual specificity protein phosphatase 3; test: In vitro inhibitory activity against human recombinant Dual specificity protein phosphatase 3 enzyme
[6] = biological target: T2, Tyrosine-protein phosphatase non-receptor type 1; test: In vitro inhibitory activity against human recombinant Protein-tyrosine phosphatase 1B
[7] = biological target: T3, M-phase inducer phosphatase 2; test: In vitro inhibitory activity against human recombinant Cell division cycle 25B

T1 sequence (P51452 whole entry): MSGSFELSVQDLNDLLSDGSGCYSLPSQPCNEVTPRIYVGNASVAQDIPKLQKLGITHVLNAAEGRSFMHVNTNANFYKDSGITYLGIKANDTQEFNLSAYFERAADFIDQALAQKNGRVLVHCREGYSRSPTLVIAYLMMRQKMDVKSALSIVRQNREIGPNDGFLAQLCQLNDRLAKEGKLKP

Work on `O=S(=O)(/C=C/c1ccc2ccccc2c1)Nc1nc(-c2ccccc2)c(-c2ccccc2)s1` yielded an IC50 [1] of 30 µM, an IC50 [2] of 45 µM and a Ki [3] of 36 µM. It also gave an IC50 [4] of 22 µM.
Work on `CCCc1sc(NS(=O)(=O)/C=C/c2ccc(F)c(F)c2)nc1-c1ccc(C(F)(F)F)cc1` yielded an IC50 [1] of 31 µM, an IC50 [2] of 29 µM and an IC50 [4] of 25 µM.
`CCCc1sc(NS(=O)(=O)/C=C/c2ccc3ccccc3c2)nc1-c1ccc(-c2ccccc2)cc1` gave an IC50 [1] of 57 µM, an IC50 [2] of over 100 µM and an IC50 [4] of over 100 µM.
With `N#Cc1ccc(/C=C/S(=O)(=O)Nc2nc(-c3ccccc3)c(-c3ccccc3)s2)cc1` the IC50 [1] was 32 µM, the IC50 [2] was 58 µM and the IC50 [4] was 76 µM.
Work on `O=S(=O)(/C=C/c1ccc(F)c(F)c1)Nc1nc(-c2ccccc2)c(-c2ccccc2)s1` yielded an IC50 [1] of 33 µM, an IC50 [2] of 85 µM and an IC50 [4] of 72 µM.
`O=S(=O)(/C=C/c1ccco1)Nc1nc(-c2ccccc2)c(-c2ccccc2)s1` was tested, and the IC50 [1] was over 100 µM, the IC50 [2] was over 100 µM and the IC50 [4] was over 100 µM.
Work on `O=S(=O)(/C=C/c1ccccc1Cl)Nc1nc(-c2ccc(Cl)cc2)cs1` yielded an IC50 [1] of over 100 µM, an IC50 [2] of over 100 µM and an IC50 [4] of 89 µM.
`Cc1sc(NS(=O)(=O)/C=C/c2ccccc2Cl)nc1-c1ccc(Cl)cc1` gave an IC50 [1] of over 100 µM, an IC50 [2] of over 100 µM and an IC50 [4] of over 100 µM.
`CCCc1sc(NS(=O)(=O)/C=C/c2ccccc2Cl)nc1-c1ccc(C(F)(F)F)cc1` gave an IC50 [1] of 25 µM, an IC50 [2] of 10 µM and an IC50 [4] of 14 µM.
Work on `CCCCCCCCCCc1sc(NS(=O)(=O)/C=C/c2ccccc2Cl)nc1-c1ccccc1` yielded an IC50 [1] of over 100 µM, an IC50 [2] of over 100 µM and an IC50 [4] of over 100 µM.
In the case of `CCCCc1ccc(/C=C/S(=O)(=O)Nc2nc(-c3ccccc3)c(-c3ccccc3)s2)cc1`, the IC50 [1] is reported as 39 µM, the IC50 [2] is reported as over 100 µM and the IC50 [4] is reported as 58 µM.
`CCc1sc(NS(=O)(=O)/C=C/c2ccc([N+](=O)[O-])cc2)nc1-c1ccccc1` was tested, and the IC50 [1] was 50 µM, the IC50 [2] was 83 µM and the IC50 [4] was 88 µM.
In the case of `O=S(=O)(/C=C/c1ccc(-c2ccccc2)cc1)Nc1nc(-c2ccccc2)c(-c2ccccc2)s1`, the IC50 [1] is reported as 34 µM, the IC50 [2] is reported as 90 µM and the IC50 [4] is reported as 70 µM.
Compound `CCc1sc(NS(=O)(=O)/C=C/c2ccc(S(C)(=O)=O)cc2)nc1-c1ccccc1` has an IC50 [1] of over 100 µM, an IC50 [2] of over 100 µM and an IC50 [4] of over 100 µM.
With `CCc1sc(NS(=O)(=O)/C=C/c2ccccc2Cl)nc1-c1ccccc1` the IC50 [1] was over 100 µM, the IC50 [2] was over 100 µM and the IC50 [4] was over 100 µM.
`CCCc1sc(NS(=O)(=O)/C=C/c2ccc(C)cc2)nc1-c1ccc(-c2ccccc2)cc1` gave an IC50 [1] of 21 µM, an IC50 [2] of 58 µM and an IC50 [4] of 46 µM.
For `CCCCCCCCC/C=C/S(=O)(=O)Nc1nc(-c2ccccc2)c(-c2ccccc2)s1`, the IC50 [1] was 24 µM, the IC50 [2] was 49 µM and the IC50 [4] was 33 µM.
In the case of `O=S(=O)(/C=C/c1ccccc1Cl)Nc1nc(-c2ccccc2)c(-c2ccccc2)s1`, the IC50 [1] is reported as 40 µM, the IC50 [2] is reported as 38 µM and the IC50 [4] is reported as 26 µM.
`COC(=O)c1ccc(/C=C/S(=O)(=O)Nc2nc(-c3ccccc3)c(-c3ccccc3)s2)cc1` gave an IC50 [1] of 20 µM, an IC50 [2] of 59 µM and an IC50 [4] of 26 µM.
Work on `O=S(=O)(/C=C/c1ccc(C(F)(F)F)cc1)Nc1nc(-c2ccccc2)c(-c2ccccc2)s1` yielded an IC50 [1] of 25 µM, an IC50 [2] of 36 µM and an IC50 [4] of 34 µM.
`CCCc1sc(NS(=O)(=O)/C=C/c2ccc(C)cc2)nc1-c1ccc(C(F)(F)F)cc1` showed an IC50 [1] of 31 µM, an IC50 [2] of 20 µM and an IC50 [4] of 20 µM.
`Cc1sc(NS(=O)(=O)/C=C/c2ccc(F)c(F)c2)nc1-c1ccc(Cl)cc1` showed an IC50 [1] of 43 µM, an IC50 [2] of 51 µM and an IC50 [4] of 33 µM.
`CCCCc1ccc(/C=C/S(=O)(=O)Nc2nc(-c3ccc(-c4ccccc4)cc3)c(CCC)s2)cc1` gave an IC50 [1] of 54 µM, an IC50 [2] of over 100 µM and an IC50 [4] of 80 µM.
`O=[N+]([O-])c1ccc(/C=C/S(=O)(=O)Nc2nc(-c3ccccc3)c(-c3ccccc3)s2)cc1` was tested, and the IC50 [1] was 47 µM, the IC50 [2] was 58 µM and the IC50 [4] was 54 µM.
`CCCc1sc(NS(=O)(=O)/C=C/c2ccc(C(F)(F)F)cc2)nc1-c1ccc(-c2ccccc2)cc1` gave an IC50 [1] of 42 µM, an IC50 [2] of over 100 µM and an IC50 [4] of 92 µM.
`Cc1ccc(/C=C/S(=O)(=O)Nc2nc(-c3ccccc3)c(-c3ccccc3)s2)cc1` showed an IC50 [1] of over 100 µM, an IC50 [2] of over 100 µM and an IC50 [4] of over 100 µM.
In the case of `CCCc1sc(NS(=O)(=O)/C=C/c2ccc3ccccc3c2)nc1-c1ccc2ccccc2c1`, the IC50 [1] is reported as 34 µM, the IC50 [2] is reported as 98 µM and the IC50 [4] is reported as 69 µM.
For `COc1ccc(/C=C/S(=O)(=O)Nc2nc(-c3ccccc3)c(-c3ccccc3)s2)cc1OC`, the IC50 [1] was over 100 µM, the IC50 [2] was over 100 µM and the IC50 [4] was over 100 µM.
`CCc1sc(NS(=O)(=O)/C=C/c2ccc3ccccc3c2)nc1-c1ccccc1` gave an IC50 [1] of 32 µM, an IC50 [2] of over 100 µM and an IC50 [4] of 89 µM.
Work on `CCCc1sc(NS(=O)(=O)/C=C/c2ccc(F)c(F)c2)nc1-c1ccc(-c2ccccc2)cc1` yielded an IC50 [5] of 22 µM, an IC50 [6] of 77 µM and an IC50 [7] of 40 µM.
Work on `CCCc1sc(NS(=O)(=O)/C=C/c2ccc(C)cc2)nc1-c1ccc(Cl)cc1` yielded an IC50 [1] of 48 µM, an IC50 [2] of 32 µM and an IC50 [4] of 34 µM.
Work on `CCCc1sc(NS(=O)(=O)/C=C/c2ccc(-c3ccccc3)cc2)nc1-c1ccc(Cl)cc1` yielded an IC50 [1] of 27 µM, an IC50 [2] of 35 µM and an IC50 [4] of 38 µM.
With `CCCc1sc(NS(=O)(=O)/C=C/c2ccccc2Cl)nc1-c1ccc(-c2ccccc2)cc1` the IC50 [1] was 82 µM, the IC50 [2] was over 100 µM and the IC50 [4] was over 100 µM.
`CCCc1sc(NS(=O)(=O)/C=C/c2ccccc2Cl)nc1-c1ccc(Cl)cc1` showed an IC50 [1] of 32 µM, an IC50 [2] of 24 µM and a Ki [3] of 4.6 µM. The IC50 [4] was 26 µM.
Work on `CCCc1sc(NS(=O)(=O)/C=C/c2ccc(F)c(F)c2)nc1-c1ccc(Cl)cc1` yielded an IC50 [1] of 20 µM, an IC50 [2] of 20 µM and an IC50 [4] of 21 µM.

Source: ChEMBL document CHEMBL1134159, “Sulfonylated aminothiazoles as new small molecule inhibitors of protein phosphatases” (Bioorg Med Chem Lett, 2001)
